Data published in patent US11345699B2, “Apoptosis signal-regulating kinase 1 inhibitors and methods of use thereof” (Enanta Pharmaceuticals, Inc., priority 2018, dated 2022).

Molecular target: ASK1 (Homo sapiens (Human), UniProt Q99683)
Experiment: HTRF KinEASE Assay (TR-FRET), inhibition of ASK1
Type: biochemical
Details: ASK1 kinase, 100 μM ATP, 1 μM STK3 peptide substrate, compound 0 to 10 μM
Procedure: Assay HTRF® KinEASE™ Assay
ASK1 was purchased from Thermofisher (Catalogue #PV4011), ATP was purchased from Sigma (Catalogue #A7699), HTRF® KinEASE™ Assay System was obtained from Cisbio (Bedford, Mass.). ½ Area plate was purchased from Perkin Elmer (Catalogue ##6005560). HTRF® KinEASE™-STK is a generic method for measuring serine/threonine kinase activities using a time-resolved fluorescence resonance energy transfer (TR-FRET) immunoassay. The IC50 value for each compound was determined in the presence of compound (various concentration from 0 to 10 μM) and a fixed amount of ATP and peptide substrates. The test compound, 1 μM STK3 peptide substrate, and […] of ASK1 kinase are incubated with kinase reaction buffer containing 50 mM HEPES Ph 7.5, 0.01% BRIJ-35, 10 mM MgCl2, and 1 mM EGTA for 30 minutes. 100 μM ATP is added to start kinase reaction and incubated for 3 hours. The STK3-antibody labeled with Eu^3+-Cryptate and 125 nM streptavidin-XL665 are mixed in a single addition with stop reagents provided by the Cisbio kit used to stop the kinase reaction. Fluorescence is detected using an Envision Multilabeled 2014 reader from PerkinElmer. The Fluorescence is measured at 615 nm (Cryptate) and 665 nm (XL665) and a ratio of 665 nm/615 nm is calculated for each well. The resulting TR-FRET is proportional to the phosphorylation level. Staurosporine was used as the positive control. IC50 was determined by Xlfit 5.3.
By using above method, the inhibition of ASK1 was evaluated for the compounds of Formula (I). Example numbers correspond to those in Table 5.

ASK1, sequence (Q99683 whole entry): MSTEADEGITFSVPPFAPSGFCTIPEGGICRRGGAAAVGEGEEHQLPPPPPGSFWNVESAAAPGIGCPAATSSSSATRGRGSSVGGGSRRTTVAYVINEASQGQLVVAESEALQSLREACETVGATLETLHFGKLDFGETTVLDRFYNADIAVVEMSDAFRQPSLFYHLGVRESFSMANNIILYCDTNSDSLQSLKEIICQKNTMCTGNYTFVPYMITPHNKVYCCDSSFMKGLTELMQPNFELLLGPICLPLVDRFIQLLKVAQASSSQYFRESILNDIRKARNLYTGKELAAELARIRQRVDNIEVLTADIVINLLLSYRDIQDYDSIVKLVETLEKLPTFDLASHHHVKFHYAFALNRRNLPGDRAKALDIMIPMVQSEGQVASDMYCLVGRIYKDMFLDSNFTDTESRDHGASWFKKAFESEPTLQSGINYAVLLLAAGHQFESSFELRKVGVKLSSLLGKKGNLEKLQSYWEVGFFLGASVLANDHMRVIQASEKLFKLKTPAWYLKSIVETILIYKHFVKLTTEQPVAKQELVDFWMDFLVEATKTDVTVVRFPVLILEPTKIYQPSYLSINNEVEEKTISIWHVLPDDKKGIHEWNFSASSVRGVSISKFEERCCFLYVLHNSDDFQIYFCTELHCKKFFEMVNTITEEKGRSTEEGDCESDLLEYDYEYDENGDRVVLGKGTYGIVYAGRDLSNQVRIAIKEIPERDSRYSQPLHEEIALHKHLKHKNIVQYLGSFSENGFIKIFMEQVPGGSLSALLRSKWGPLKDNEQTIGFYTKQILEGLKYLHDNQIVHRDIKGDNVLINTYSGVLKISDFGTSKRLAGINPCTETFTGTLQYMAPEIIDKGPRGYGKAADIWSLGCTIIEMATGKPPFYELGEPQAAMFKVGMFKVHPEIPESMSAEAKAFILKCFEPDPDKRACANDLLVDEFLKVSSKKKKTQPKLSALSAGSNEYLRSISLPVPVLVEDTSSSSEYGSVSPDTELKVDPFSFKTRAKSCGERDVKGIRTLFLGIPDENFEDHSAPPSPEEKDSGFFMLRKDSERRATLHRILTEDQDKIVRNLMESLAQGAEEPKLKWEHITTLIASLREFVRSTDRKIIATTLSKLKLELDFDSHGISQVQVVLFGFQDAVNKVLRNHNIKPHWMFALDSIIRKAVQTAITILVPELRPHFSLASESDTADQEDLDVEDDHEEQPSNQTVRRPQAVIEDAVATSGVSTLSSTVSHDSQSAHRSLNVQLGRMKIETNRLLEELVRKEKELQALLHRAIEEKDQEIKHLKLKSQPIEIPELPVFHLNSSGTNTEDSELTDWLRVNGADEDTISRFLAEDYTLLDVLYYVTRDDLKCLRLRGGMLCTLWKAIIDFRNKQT

| SMILES | IC50 [nM] |
| --- | --- |
| C[C@H](CO)n1nnnc1-c1cccc(NC(=O)c2cc3c(cn2)CCN(c2ncccn2)C3)n1 [Example 108, (R)—N-(6-(1-(1-hydroxypropan-2-yl)-1H-tetrazol-5-yl)pyridin-2-yl)-6-(pyrimidin-2-yl)-5,6,7,8-tetrahydro-2,6-naphthyridine-3-carboxamide] | 1.25 to 10 |
| COc1cc2c(cc1C(=O)Nc1cccc(-c3nnnn3[C@H](C)CO)n1)CN(C(=O)OC1CCOC1)CC2 (stereo partly drawn) [Example 143] | 1.25 to 10 |
| COc1cc2c(cc1C(=O)Nc1cccc(-c3nnnn3[C@H](C)CO)n1)CN(c1ncccn1)CC2 [Example 84, (R)-N-(6-(1-(1-hydroxypropan-2-yl)-1H-tetrazol-5-yl)pyridin-2-yl)-6-methoxy-2-(pyrimidin-2-yl)-1,2,3,4-tetrahydroisoquinoline-7-carboxamide] | 1.25 to 10 |
| C[C@H](CO)n1nnnc1-c1cccc(NC(=O)c2cc3c(cn2)CCN(C(=O)N2CCOCC2)C3)n1 [Example 139] | 1.25 to 10 |
| C[C@H](CO)n1nnnc1-c1cccc(NC(=O)c2cc3c(cc2F)CCN(C(=O)N2CCCCC2)C3)n1 [Example 116] | 1.25 to 10 |
| C[C@H](CO)n1nnnc1-c1cccc(NC(=O)c2cc3c(cc2F)CCN(Cc2ccc(F)cc2)C3)n1 [Example 121] | 10 to 100 |
| C[C@H](CO)n1nnnc1-c1cccc(NC(=O)c2cc3c(cn2)CCN(C(=O)c2cn(C4CC4)cn2)C3)n1 [Example 106] | 1.25 to 10 |
| COc1cc2c(cc1C(=O)Nc1cccc(-c3nnnn3[C@H](C)CO)n1)CN(C(=O)OC[C@@H](O)C(F)(F)F)CC2 [Example 141] | < 1.25 |
| COc1cc2c(cc1C(=O)Nc1cccc(-c3nnnn3[C@H](C)CO)n1)CN(C(=O)c1ccccn1)CC2 [Example 101] | < 1.25 |
| COc1cc2c(cc1C(=O)Nc1cccc(-c3nnnn3[C@H](C)CO)n1)CN(C(=O)N1CCOCC1)CC2 [Example 131] | < 1.25 |
| COc1cc2c(cc1C(=O)Nc1cccc(-c3nnnn3[C@H](C)CO)n1)CN(C(=O)[C@](C)(O)C(F)(F)F)CC2 [Example 105] | < 1.25 |
| C[C@H](CO)n1cnnc1-c1cccc(NC(=O)c2cc3c(cn2)CCN(S(=O)(=O)C2CC2)C3)n1 [Example 38, (R)-6-(cyclopropylsulfonyl)-N-(6-(4-(1-hydroxypropan-2-yl)-4H-1,2,4-triazol-3-yl)pyridin-2-yl)-5,6,7,8-tetrahydro-2,6-naphthyridine-3-carboxamide] | 10 to 100 |
| C[C@H](CO)n1nnnc1-c1cccc(NC(=O)c2cc3c(cc2F)CCN(C2CC2)C3)n1 [Example 120] | 10 to 100 |
| COc1cc2c(cc1C(=O)Nc1cccc(-c3nnnn3[C@H](C)CO)n1)CN(c1cnc(F)cn1)CC2 [Example 154, (R)-2-(5-fluoropyrazine-2-yl)-N-(6-(1-(1-hydroxypropan-2-yl)-1H-tetrazol-5-yl)pyridin-2-yl)-6-methoxy-1,2,3,4-tetrahydroisoquinoline-7-carboxamide] | 1.25 to 10 |
| CC(C)n1cnnc1-c1cccc(NC(=O)c2cc3c(cn2)CCN(S(=O)(=O)N(C)C)C3)n1 [Example 2, 6-(N,N-dimethylsulfamoyl)-N-(6-(4-isopropyl-4H-1,2,4-triazol-3-yl)pyridin-2-yl)-5,6,7,8-tetrahydro-2,6-naphthyridine-3-carboxamide] | 10 to 100 |
| COc1cc2c(cc1C(=O)Nc1cccc(-c3nncn3C(C)C)n1)CN(C(=O)OC(C)(C)C)CC2 [Example 5, tert-butyl 7-((6-(4-isopropyl-4H-1,2,4-triazol-3-yl)pyridin-2-yl)carbamoyl)-6-methoxy-3,4-dihydroisoquinoline-2(1H)-carboxylate] | 10 to 100 |
| CCNS(=O)(=O)N1CCc2cc(F)c(C(=O)Nc3cccc(-c4nnnn4[C@H](C)CO)n3)cc2C1 [Example 118] | 1.25 to 10 |

| SMILES | IC50 [nM] |
| --- | --- |
| COc1cc2c(cc1C(=O)Nc1cccc(-c3nnnn3[C@H](C)CO)n1)CN(C(=O)N1CC[C@@H](O)C1)CC2 [Example 144, N-(6-(1-((R)-1-hydroxypropan-2-yl)-1H-tetrazol-5-yl)pyridin-2-yl)-2-((R)-3-hydroxypyrrolidine-1-carbonyl)-6-methoxy-1,2,3,4-tetrahydroisoquinoline-7-carboxamide] | < 1.25 |
| CCNC(=O)N1CCc2cc(F)c(C(=O)Nc3cccc(-c4nnnn4[C@H](C)CO)n3)cc2C1 [Example 111] | 1.25 to 10 |
| CC(C)n1cnnc1-c1cccc(NC(=O)c2cc3c(cc2F)CCN(C(=O)OC(C)(C)C)C3)n1 [Example 10, tert-butyl 6-fluoro-7-((6-(4-isopropyl-4H-1,2,4-triazol-3-yl)pyridin-2-yl)carbamoyl)-3,4-dihydroisoquinoline-2(1H)-carboxylate] | 1.25 to 10 |
| CC(C)n1cnnc1-c1cccc(NC(=O)c2cc3c(cc2F)CCN(C(=O)OCC(F)(F)F)C3)n1 [Example 21, 2,2,2-trifluoroethyl 6-fluoro-7-((6-(4-isopropyl-4H-1,2,4-triazol-3-yl)pyridin-2-yl)carbamoyl)-3,4-dihydroisoquinoline-2(1H)-carboxylate] | 1.25 to 10 |
| COc1cc2c(cc1C(=O)Nc1cccc(-c3nncn3C(C)C)n1)CN(C(=O)C(C)(C)CO)CC2 [Example 126, 2-(3-hydroxy-2,2-dimethylpropanoyl)-N-(6-(4-isopropyl-4H-1,2,4-triazol-3-yl)pyridin-2-yl)-6-methoxy-1,2,3,4-tetrahydroisoquinoline-7-carboxamide] | < 1.25 |
| COCCOC(=O)N1CCc2cc(OC)c(C(=O)Nc3cccc(-c4nnnn4[C@H](C)CO)n3)cc2C1 [Example 96] | < 1.25 |
| C[C@H](CO)n1nnnc1-c1cccc(NC(=O)c2cc3c(cc2F)CCN(C(=O)N2CCC2)C3)n1 [Example 135] | 1.25 to 10 |
| COc1cc2c(cc1C(=O)Nc1cccc(-c3nnnn3[C@H](C)CO)n1)CN(c1ncns1)CC2 [Example 153] | 1.25 to 10 |
| COc1cc2c(cc1C(=O)Nc1cccc(-c3nncn3C(C)C)n1)CN(C(=O)[C@@H](O)CC(C)C)CC2 [Example 128] | < 1.25 |
| COc1cc2c(cc1C(=O)Nc1cccc(-c3nncn3C(C)C)n1)CN(C(=O)CN1CCOC1=O)CC2 [Example 148] | < 1.25 |
| CONC(=O)N1CCc2cc(OC)c(C(=O)Nc3cccc(-c4nnnn4[C@H](C)CO)n3)cc2C1 [Example 147] | < 1.25 |
| COCCC(=O)N1CCc2cc(OC)c(C(=O)Nc3cccc(-c4nncn4C(C)C)n3)cc2C1 [Example 125] | < 1.25 |
| COc1cc2c(cc1C(=O)Nc1cccc(-c3nnnn3[C@H](C)CO)n1)CN(C(=O)c1cnn(C3CC3)c1)CC2 [Example 97] | < 1.25 |
| C[C@H](CO)n1nnnc1-c1cccc(NC(=O)c2cc3c(cc2F)CCN(C(=O)c2ccccn2)C3)n1 [Example 133] | 10 to 100 |
| COc1cc2c(cc1C(=O)Nc1cccc(-c3nnnn3[C@H](C)CO)n1)CN(C(=O)C1(O)CC1)CC2 [Example 114] | < 1.25 |
| CCOC(=O)N1CCc2cnc(C(=O)Nc3cccc(-c4nnnn4[C@H]4CCC[C@@H]4O)n3)cc2C1 [Example 145] | 10 to 100 |
